Patent US20220401514A1, “ANTIMICROBIAL, BACTERIOPHAGE-DERIVED POLYPEPTIDES AND THEIR USE AGAINST GRAM-NEGATIVE AND ACID-FAST BACTERIA” (CONTRAFECT CORPORATION, priority 2019, published 2022)
Where two headings read alike, the source gives them in different places.

Legend:
[1] = tested on: eight different strains of five species of Gram-negative bacteria; experiment: MBEC in eight strains of five species of Gram-negative bacteria; type: cell-based; details: for MBEC: 24 h biofilm in LB, 16 h treatment
Description: Determination of Minimal Biofilm Eradicating Concentrations (MBEC). […] The OD600 of extracted crystal violet was determined. The MBEC value of each sample was determined as the minimum drug concentration required to remove >95% of biofilm biomass as assessed by crystal violet quantitation (in comparison to untreated controls).
MBEC values were likewise determined for Chp2, Chp2-M1, and Chp10-M1 in eight different strains of five species of Gram-negative bacteria. […] The films were then washed and stained with crystal violet to visualize the MBEC.

[2] = tested on: P. aeruginosa strain CFS-1292; experiment: MIC in presence and absence of NaCl (140 mM); type: cell-based, Pseudomonas aeruginosa
Description: Certain Chp peptides were evaluated over a range of physiological NaCl levels and pH values, and were further evaluated for activity in the presence of various divalent cations.

[3] = tested on: P. aeruginosa strain CFS-1292; experiment: Checkerboard assay (FICI) with antibiotics, P. aeruginosa; type: cell-based, Pseudomonas aeruginosa; design: key to FIC Index: FICI = FIC A + FIC B; each FIC = MIC in combination / MIC alone; details: for FICI: CAA + […] human serum; for Chp peptide MIC in checkerboard: P. aeruginosa CFS-1292, CAA + […] human serum
Method in brief: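 Antibiotic diluted 2-fold along one plate axis against Chp peptide; bacteria added at 1×10^5 […] in CAA, optionally with human serum or pulmonary surfactant.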

[4] = tested on: mature biofilms formed by P. aeruginosa strain ATCC 17647; experiment: Minimal Biofilm Eradicating Concentration (MBEC), Calgary Biofilm Device, crystal violet; type: cell-based, Pseudomonas aeruginosa
Description: Biofilms are then washed and treated with e.g., a 2-fold dilution series of the lysin in TSBg at e.g., 37° C. for 24 hours. After treatment, wells are washed, air-dried at e.g., 37° C. and stained with e.g., 0.05% crystal violet for 10 minutes.
Determination of Minimal Biofilm Eradicating Concentrations (MBEC). […] Biofilms were washed and treated with a 2-fold dilution series of each peptide in TSBg at 37° C. for 16 hours. […] The OD600 of extracted crystal violet was determined.

[5] = tested on: M. smegmatis; experiment: 45 hr MIC against M. smegmatis (NTM), Mueller Hinton broth; type: cell-based, Mycobacterium smegmatis
[6] = tested on: P. aeruginosa strain CFS-1292; experiment: MIC in presence and absence of Survanta pulmonary surfactant; type: cell-based, Pseudomonas aeruginosa
[7] = tested on: P. aeruginosa strain CFS 1292; type: cell-based, Pseudomonas aeruginosa
[8] = tested on: M. fortuitum; experiment: 45 hr MIC against M. fortuitum (NTM); type: cell-based, Mycobacterium fortuitum; details: M. fortuitum subsp. Fortuitum da Costa Cruz. ATCC 6841
[9] = tested on: P. aeruginosa strain CFS-1292; experiment: Time-kill assay in CAA with 2.5% human serum; type: cell-based, Pseudomonas aeruginosa; details: for Loss of bacterial viability: CAA with […] human serum, vs untreated controls
Description: Time-Kill Assay of Chp Peptide Activity. […] Exponential phase bacteria were then diluted 1:100 into CAA/HuS and peptide was added at a final concentration of either 1 or 10 μg/mL. Control cultures were included with no peptide added (i.e., buffer control).

## MRLKMARRRYRLPRRRSRRLFSRTALRMHPRNRLRRIMRGGIRF [Chp2]
[1]; A. baumanni (ATCC BAA-747)
  MBEC: 0.5 µg/mL
[1]; E. cloacae (CCUG 63317)
  MBEC: 2 µg/mL
[1]; E. coli (ATCC 25922)
  MBEC: 2 µg/mL
[1]; E. coli (ATCC 35329)
  MBEC: 4 µg/mL
[1]; E. coli (EC2)
  MBEC: 2 µg/mL
[1]; K. pneumoniae (ATCC 700603)
  MBEC: 4 µg/mL
[1]; K. pneumoniae (KP1)
  MBEC: 2 µg/mL
[1]; P. aeruginosa (ATCC 27853)
  MBEC: 0.25 µg/mL
[1]; biofilms formed 24 hours in LB, treated 16 hours
  antibiofilm activity (MBEC): potent antibiofilm activity
[2]; CAA + 140 mM NaCl versus CAA without added NaCl
  Fold change in MIC: 1
[2]; CAA + 140 mM NaCl, P. aeruginosa CFS-1292
  MIC, CAA + 140 mM NaCl: 0.5 µg/mL
[2]; CAA, no added NaCl, P. aeruginosa CFS-1292
  MIC, CAA (no added NaCl): 0.5 µg/mL
[3]; Chp peptide combined with Amikacin, P. aeruginosa CFS-1292
  FIC Index: 0.5
[3]; Chp peptide combined with Azithromycin, P. aeruginosa CFS-1292
  FIC Index: 0.375
[3]; Chp peptide combined with Aztreonam, P. aeruginosa CFS-1292
  FIC Index: 0.375
[3]; Chp peptide combined with Ciprofloxacin, P. aeruginosa CFS-1292
  FIC Index: 0.75
[3]; Chp peptide combined with Colistin, P. aeruginosa CFS-1292
  FIC Index: 0.375
[3]; Chp peptide combined with Gentamicin, P. aeruginosa CFS-1292
  FIC Index: 0.5625
[3]; Chp peptide combined with Imipenem, P. aeruginosa CFS-1292
  FIC Index: 0.375
[3]; Chp peptide combined with Levofloxacin, P. aeruginosa CFS-1292
  FIC Index: 0.5
[3]; Chp peptide combined with Meropenem, P. aeruginosa CFS-1292
  FIC Index: 0.375
[3]; Chp peptide combined with Piperacillin, P. aeruginosa CFS-1292
  FIC Index: 1
[3]; Chp peptide combined with Tobramycin, P. aeruginosa CFS-1292
  FIC Index: 0.375
[3]; P. aeruginosa CFS-1292, range of antibiotics
  interaction between the Chp peptide and the antibiotic (FICI values): either synergy (i.e., ≤0.5) or strongly additive (i.e., >0.5-1)
[3]; combination with Amikacin
  FICI: 0.500
[3]; combination with Azithromycin
  FICI: 0.156
[3]; combination with Aztreonam
  FICI: 0.500
[3]; combination with Ciprofloxacin
  FICI: 0.500
[3]; combination with Colistin
  FICI: 0.375
[3]; combination with Fosfomycin
  FICI: 0.250
[3]; combination with Gentamicin
  FICI: 0.281
[3]; combination with Imipenem
  FICI: 0.188
[3]; combination with Piperacillin
  FICI: 0.188
[3]; combination with Rifampicin
  FICI: 0.563
[3]; combination with Tobramycin
  FICI: 0.266
[3]; combined with Amikacin, P. aeruginosa CFS-1292
  Chp peptide FIC: 0.25
[3]; combined with Amikacin
  Chp peptide MIC in checkerboard: 0.25 µg/mL
[3]; combined with Azithromycin, P. aeruginosa CFS-1292
  Chp peptide FIC: 0.125
[3]; combined with Azithromycin
  Chp peptide MIC in checkerboard: 0.0625 µg/mL
[3]; combined with Aztreonam, P. aeruginosa CFS-1292
  Chp peptide FIC: 0.125
[3]; combined with Aztreonam
  Chp peptide MIC in checkerboard: 0.0625 µg/mL
[3]; combined with Ciprofloxacin, P. aeruginosa CFS-1292
  Chp peptide FIC: 0.25
[3]; combined with Ciprofloxacin
  Chp peptide MIC in checkerboard: 0.125 µg/mL
[3]; combined with Colistin, P. aeruginosa CFS-1292
  Chp peptide FIC: 0.125
[3]; combined with Colistin
  Chp peptide MIC in checkerboard: 0.0625 µg/mL
[3]; combined with Gentamicin, P. aeruginosa CFS-1292
  Chp peptide FIC: 0.0625
[3]; combined with Gentamicin
  Chp peptide MIC in checkerboard: 0.03125 µg/mL
[3]; combined with Imipenem, P. aeruginosa CFS-1292
  Chp peptide FIC: 0.25
[3]; combined with Imipenem
  Chp peptide MIC in checkerboard: 0.125 µg/mL
[3]; combined with Levofloxacin, P. aeruginosa CFS-1292
  Chp peptide FIC: 0.25
[3]; combined with Levofloxacin
  Chp peptide MIC in checkerboard: 0.0625 µg/mL
[3]; combined with Meropenem, P. aeruginosa CFS-1292
  Chp peptide FIC: 0.125
[3]; combined with Meropenem
  Chp peptide MIC in checkerboard: 0.0625 µg/mL
[3]; combined with Piperacillin, P. aeruginosa CFS-1292
  Chp peptide FIC: 0.5
[3]; combined with Piperacillin
  Chp peptide MIC in checkerboard: 0.25 µg/mL
[3]; combined with Tobramycin, P. aeruginosa CFS-1292
  Chp peptide FIC: 0.125
[3]; combined with Tobramycin
  Chp peptide MIC in checkerboard: 0.0625 µg/mL
[4]; MBEC assay format, summary statement, strain not stated there
  MBEC: 0.25 µg/mL
[4]; P. aeruginosa ATCC 17647 mature biofilm, tryptic soy broth with 2% glucose
  MBEC: 0.25 µg/mL
[5]; M. smegmatis MC^2 155, Run #1
  45 hr MIC: 4 µg/mL
[5]; M. smegmatis MC^2 155, Run #2
  45 hr MIC: 4 µg/mL
[6]; CAA media + 0.19 mg/mL Survanta
  MIC: 1 µg/mL
[6]; CAA media + […] Survanta
  MIC: 1 µg/mL
[6]; CAA media alone
  MIC: 0.5 µg/mL
[7]; 21-day study, Day 0, duplicates (1),(2)
  Serial Passage MIC Day 0: 0.25 µg/mL
[7]; 21-day study, Day 21, duplicates (1),(2)
  Serial Passage MIC Day 21: 0.25 µg/mL
[7]; Day 0, MIC of agent on untreated control culture
  Serial Passage MIC Day 0 (untreated): 0.25 µg/mL
[7]; Day 0, cultures passaged with agent, duplicates (1),(2)
  Serial Passage MIC Day 0: 0.25 µg/mL
[7]; Day 1, MIC of agent on untreated control culture
  Serial Passage MIC Day 1 (untreated): 0.25 µg/mL
[7]; Day 1, cultures passaged with agent, duplicates (1),(2)
  Serial Passage MIC Day 1: 0.25 µg/mL
[7]; Day 2, MIC of agent on untreated control culture
  Serial Passage MIC Day 2 (untreated): 0.25 µg/mL
[7]; Day 2, cultures passaged with agent, duplicates (1),(2)
  Serial Passage MIC Day 2: 0.25 µg/mL
[7]; Day 3, MIC of agent on untreated control culture
  Serial Passage MIC Day 3 (untreated): 0.25 µg/mL
[7]; Day 3, cultures passaged with agent, duplicates (1),(2)
  Serial Passage MIC Day 3: 0.25 µg/mL
[7]; Day 4, MIC of agent on untreated control culture
  Serial Passage MIC Day 4 (untreated): 0.25 µg/mL
[7]; Day 4, cultures passaged with agent, duplicates (1),(2)
  Serial Passage MIC Day 4: 0.25 µg/mL
[7]; Day 5, MIC of agent on untreated control culture
  Serial Passage MIC Day 5 (untreated): 0.25 µg/mL
[7]; Day 5, cultures passaged with agent, duplicates (1),(2)
  Serial Passage MIC Day 5: 0.25 µg/mL
[7]; Day 6, MIC of agent on untreated control culture
  Serial Passage MIC Day 6 (untreated): 0.25 µg/mL
[7]; Day 6, cultures passaged with agent, duplicates (1),(2)
  Serial Passage MIC Day 6: 0.25 µg/mL
[7]; Day 7, MIC of agent on untreated control culture
  Serial Passage MIC Day 7 (untreated): 0.25 µg/mL
[7]; Day 7, cultures passaged with agent, duplicates (1),(2)
  Serial Passage MIC Day 7: 0.25 µg/mL
[7]; Day 8, MIC of agent on untreated control culture
  Serial Passage MIC Day 8 (untreated): 0.25 µg/mL
[7]; Day 8, cultures passaged with agent, duplicates (1),(2)
  Serial Passage MIC Day 8: 0.25 µg/mL
[7]; Day 9, MIC of agent on untreated control culture
  Serial Passage MIC Day 9 (untreated): 0.25 µg/mL
[7]; Day 9, cultures passaged with agent, duplicates (1),(2)
  Serial Passage MIC Day 9: 0.25 µg/mL
[7]; serial passage
  change in MIC after 21 days: no significant change
[8]
  45 hr MIC: 2 µg/mL
[9]; 1 μg/mL, 1 hour
  Loss of bacterial viability: >3.5 log10 CFU/mL
[9]; 1 μg/mL, 3 hours
  Loss of bacterial viability: >4 log10 CFU/mL
[9]; 1 μg/mL, 24 hours
  Loss of bacterial viability: >4.8 log10 CFU/mL
[9]; 10 μg/mL, 1 hour
  Loss of bacterial viability: >3.5 log10 CFU/mL
[9]; 10 μg/mL, 3 hours
  Loss of bacterial viability: >4 log10 CFU/mL
[9]; 10 μg/mL, 24 hours
  Loss of bacterial viability: >4.8 log10 CFU/mL
[9]; 1, 3 and 24 hours, 1 μg/mL and 10 μg/mL, CAA + […] human serum
  bacterial viability after treatment (time-kill): multi-log fold decreases
